Starred links: 1 amine or outer side, 2 acyl side, 3 side chain; linkers in the order of their positions; H or OH if unused. Non-standard residues stand in square brackets, D forms with d. Residues, ends and D or L forms follow the SMILES beside them. Groups on a side chain read outwards from the residue. *: point of attachment. C20 diacid = O=C(O)CCCCCCCCCCCCCCCCCCC(=O)*; C18 diacid = O=C(O)CCCCCCCCCCCCCCCCC(=O)*; γGlu = O=C(O)[C@H](CCC(=O)[*:2])N[*:1]; εLys = N[C@@H](CCCCN[*:1])C(=O)[*:2]; Aib = CC(C)(N)C(=O)O
Assay: Pharmacokinetic study in dogs after oral dosing of tablets with SNAC
Type: in vivo, Beagle dogs
Experimental: The purpose of this example is to determine the half-life and plasma exposure in vivo of the compounds of the present invention after p.o. administration to beagle dogs, i.e. the terminal half-life and concentration of test substance that reaches circulation with time. This is done in a pharmacokinetic (PK) study, where these parameters of the compound in question are determined. By terminal half-life is generally meant the period of time it takes to halve a certain plasma concentration, measured after the initial distribution phase.
The amount of SNAC in the tablet composition was 100-300 mg, the amount of magnesium stearate in the tablet composition was 7.7 mg, and the target amount of each test substance in the tablet composition was 3-4 mg.
Male beagle dogs, 1-7 years of age and weighing 9-17 kg during the study period, were included in the study. The dogs were dosed in a fasting state. The dogs were group housed in pens (12 hours light: 12 hours dark), and fed individually and restrictedly once daily with Royal Canin Medium Adult dog food (Royal Canin Products, China Branch, or Brogaarden A/S, Denmark). The dogs were used for repeated PK studies with a suitable wash-out period between successive dosing. An appropriate acclimatization period was given prior to initiation of the first PK study. All handling, dosing, and blood sampling of the animals were performed by trained and skilled staff. Before the studies, the dogs were fasted overnight and from 0 to 4 hours after dosing. The dogs were restricted to water 1 hour before dosing until 4 hours after dosing, but otherwise had ad libitum access to water during the whole period.
The compositions were administered by a single oral dosing to the dogs in groups of 6-8 dogs. […] The mouth was then closed, and 10 mL of tap water was given by syringe or gavage to facilitate swallowing of the tablet.
For each blood sample time point, approximately 0.8 mL of whole blood was collected in a 1.5 mL EDTA-coated tube, which was gently turned to mix the sample with EDTA. Blood samples were collected in EDTA buffer (8 mM) and then centrifuged at 4° C. and 2000g for 10 minutes. Plasma was pipetted into Micronic tubes on dry ice, and kept at −20° C. or lower until analysis. Blood samples were taken as appropriate, for example from a venflon in the cephalic vein in the front leg for the first 2 hours and then with syringe from the jugular vein for the rest of the time points. The first few drops were allowed to drain from the venflon to avoid heparin saline from the venflon in the sample.
All blood samples were collected into test tubes containing EDTA for stabilisation and kept on ice until centrifugation. Plasma was separated from whole blood by centrifugation and the plasma was stored at −20° C. or lower until analysis.
The plasma was analysed for test substance using LC-MS (Liquid Chromatography-Mass Spectrometry) as known to the person skilled in the art. […] RP-HPLC separation was achieved using a linear gradient of 1:1 acetonitrile/methanol in 1% aqueous formic acid using either: a Phenomenex Onyx Monolithic C18 column (50×2.0 mm) and a flow rate of 0.8 mL/min at 30° C.; or an Agilent Poroshell 120 SB-C18 column (50×2.1 mm, 2.7 μm) at a flow rate of 0.4 mL/min at 60° C. The mass spectrometer was operated in either positive ionization SIM mode or positive ionization PRM mode.
For each individual animal, a plasma concentration-time profile was analysed by a non-compartmental model in Pharsight Phoenix WinNonLin ver. 6.4 software or other relevant software for PK analysis, and the resulting terminal half-life (t1/2), maximum plasma concentration per dose (Cmax/D), time for maximum plasma concentration (tmax), and area under the curve to infinity per dose (AUC/D) were determined. Summary statistics of pharmacokinetic results were presented as median (for tmax), harmonic mean ([…]), or arithmetic mean (Cmax, AUC).

Row | SMILES | AUC/Dose (dog, in vivo, po) [kg·h/L] | Cmax/Dose (dog, in vivo, po) [kg/L] | Cmax/Dose (oral tablet, 100 mg SNAC, 3 mg test substance, Beagle dogs, arithmetic mean) [kg/L]
1 | CC[C@H](C)[C@H](NC(=O)[C@H](Cc1ccccc1)NC(=O)[C@H](CCC(=O)O)NC(=O)[C@H](CCCNC(=N)N)NC(=O)[C@H](C)NC(=O)[C@H](C)NC(=O)[C@H](CCC(N)=O)NC(=O)[C@H](CCCCNC(=O)[C@@H](N)CCCCNC(=O)[C@@H](N)CCCCNC(=O)CC[C@H](NC(=O)CCCCCCCCCCCCCCCCC(=O)O)C(=O)O)NC(=O)[C@H](CCC(=O)O)NC(=O)[C@H](CC(C)C)NC(=O)[C@H](Cc1ccc(O)cc1)NC(=O)[C@@H](NC(=O)[C@H](CO)NC(=O)[C@H](Cc1ccc(O)cc1)NC(=O)[C@H](CC(=O)O)NC(=O)[C@H](CO)NC(=O)[C@@H](NC(=O)[C@H](Cc1ccccc1)NC(=O)[C@@H](NC(=O)CNC(=O)[C@H](CCC(=O)O)NC(=O)C(C)(C)NC(=O)[C@@H](N)Cc1ccc(O)cc1)[C@@H](C)O)[C@@H](C)O)[C@@H](C)CC)C(=O)N[C@@H](CC(N)=O)C(=O)N[C@@H](Cc1c[nH]c2ccccc12)C(=O)N[C@@H](CC(C)C)C(=O)N[C@@H](CC(C)C)C(=O)N[C@@H](C)C(=O)NCC(=O)NCC(=O)N1CCC[C@H]1C(=O)N[C@@H](CO)C(=O)N[C@@H](CO)C(=O)NCC(=O)N[C@@H](C)C(=O)N1CCC[C@H]1C(=O)N1CCC[C@H]1C(=O)N1CCC[C@H]1C(=O)N[C@@H](CO)C(=O)O [Compound No. 11] (H-Y[Aib]EGTFTSDYSIYLEK([εLys-εLys-γGlu-C18 diacid])QAAREFINWLLAGGPSSGAPPPS-OH) | 7.1 | 0.19 | 
2 | CC[C@H](C)[C@H](NC(=O)[C@H](Cc1ccccc1)NC(=O)[C@H](CCC(=O)O)NC(=O)[C@H](CCCNC(=N)N)NC(=O)[C@H](C)NC(=O)[C@H](C)NC(=O)[C@H](CCC(N)=O)NC(=O)[C@H](CCCCNC(=O)[C@@H](N)CCCCNC(=O)[C@@H](N)CCCCNC(=O)CC[C@H](NC(=O)CCCCCCCCCCCCCCCCC(=O)O)C(=O)O)NC(=O)[C@H](CCC(=O)O)NC(=O)[C@H](CC(C)C)NC(=O)[C@H](Cc1ccc(O)cc1)NC(=O)[C@@H](NC(=O)[C@H](CO)NC(=O)[C@H](Cc1ccc(O)cc1)NC(=O)[C@H](CC(=O)O)NC(=O)[C@H](CO)NC(=O)[C@@H](NC(=O)[C@H](Cc1ccccc1)NC(=O)[C@@H](NC(=O)CNC(=O)[C@H](CCC(=O)O)NC(=O)C(C)(C)NC(=O)[C@@H](N)Cc1ccc(O)cc1)[C@@H](C)O)[C@@H](C)O)[C@@H](C)CC)C(=O)N[C@@H](CCC(=O)O)C(=O)N[C@@H](Cc1c[nH]c2ccccc12)C(=O)N[C@@H](CC(C)C)C(=O)N[C@@H](CC(C)C)C(=O)N[C@@H](CCCNC(=N)N)C(=O)NCC(=O)NCC(=O)N1CCC[C@H]1C(=O)N[C@@H](CCC(=O)O)C(=O)N[C@@H](CO)C(=O)NCC(=O)N[C@@H](C)C(=O)N1CCC[C@H]1C(=O)N1CCC[C@H]1C(=O)N1CCC[C@H]1C(=O)N[C@@H](CO)C(=O)O [Compound No. 13] (H-Y[Aib]EGTFTSDYSIYLEK([εLys-εLys-γGlu-C18 diacid])QAAREFIEWLLRGGPESGAPPPS-OH) |  |  | 0.29
3 | CC[C@H](C)[C@H](NC(=O)[C@H](Cc1ccccc1)NC(=O)[C@H](CCC(=O)O)NC(=O)[C@H](CCCNC(=N)N)NC(=O)[C@H](C)NC(=O)[C@H](C)NC(=O)[C@H](CCC(N)=O)NC(=O)[C@H](CCCCNC(=O)[C@@H](N)CCCCNC(=O)[C@@H](N)CCCCNC(=O)CC[C@H](NC(=O)CCCCCCCCCCCCCCCCCCC(=O)O)C(=O)O)NC(=O)[C@H](CCC(=O)O)NC(=O)[C@H](CC(C)C)NC(=O)[C@H](Cc1ccc(O)cc1)NC(=O)[C@@H](NC(=O)[C@H](CO)NC(=O)[C@H](Cc1ccc(O)cc1)NC(=O)[C@H](CC(=O)O)NC(=O)[C@H](CO)NC(=O)[C@@H](NC(=O)[C@H](Cc1ccccc1)NC(=O)[C@@H](NC(=O)CNC(=O)[C@H](CCC(=O)O)NC(=O)C(C)(C)NC(=O)[C@@H](N)Cc1ccc(O)cc1)[C@@H](C)O)[C@@H](C)O)[C@@H](C)CC)C(=O)N[C@@H](CC(N)=O)C(=O)N[C@@H](Cc1c[nH]c2ccccc12)C(=O)N[C@@H](CC(C)C)C(=O)N[C@@H](CC(C)C)C(=O)N[C@@H](C)C(=O)NCC(=O)NCC(=O)N1CCC[C@H]1C(=O)N[C@@H](CO)C(=O)N[C@@H](CO)C(=O)NCC(=O)N[C@@H](C)C(=O)N1CCC[C@H]1C(=O)N1CCC[C@H]1C(=O)N1CCC[C@H]1C(=O)N[C@@H](CO)C(=O)O [Compound No. 16] (H-Y[Aib]EGTFTSDYSIYLEK([εLys-εLys-γGlu-C20 diacid])QAAREFINWLLAGGPSSGAPPPS-OH) | 8.6 | 0.21 | 
4 | CC[C@H](C)[C@H](NC(=O)[C@H](Cc1ccccc1)NC(=O)[C@H](CCC(=O)O)NC(=O)[C@H](CCCNC(=N)N)NC(=O)[C@H](C)NC(=O)[C@H](C)NC(=O)[C@H](CCC(N)=O)NC(=O)[C@H](CCCCNC(=O)[C@@H](N)CCCCNC(=O)[C@@H](N)CCCCNC(=O)CC[C@H](NC(=O)CCCCCCCCCCCCCCCCC(=O)O)C(=O)O)NC(=O)[C@H](CCC(=O)O)NC(=O)[C@H](CC(C)C)NC(=O)[C@H](CC(C)C)NC(=O)[C@@H](NC(=O)[C@H](CO)NC(=O)[C@H](Cc1ccc(O)cc1)NC(=O)[C@H](CC(=O)O)NC(=O)[C@H](CO)NC(=O)[C@@H](NC(=O)[C@H](Cc1ccccc1)NC(=O)[C@@H](NC(=O)CNC(=O)[C@H](CCC(=O)O)NC(=O)C(C)(C)NC(=O)[C@@H](N)Cc1ccc(O)cc1)[C@@H](C)O)[C@@H](C)O)[C@@H](C)CC)C(=O)N[C@@H](CC(N)=O)C(=O)N[C@@H](Cc1c[nH]c2ccccc12)C(=O)N[C@@H](CC(C)C)C(=O)N[C@@H](CC(C)C)C(=O)N[C@@H](C)C(=O)NCC(=O)NCC(=O)N1CCC[C@H]1C(=O)N[C@@H](CO)C(=O)N[C@@H](CO)C(=O)O [Compound No. 20] (H-Y[Aib]EGTFTSDYSILLEK([εLys-εLys-γGlu-C18 diacid])QAAREFINWLLAGGPSS-OH) |  | 0.21 | 
5 | CC[C@H](C)[C@H](NC(=O)[C@H](Cc1ccccc1)NC(=O)[C@H](CCC(=O)O)NC(=O)[C@H](CCC(N)=O)NC(=O)[C@H](C)NC(=O)[C@H](C)NC(=O)[C@H](CCC(N)=O)NC(=O)[C@H](CCCCNC(=O)[C@@H](N)CCCCNC(=O)[C@@H](N)CCCCNC(=O)CC[C@H](NC(=O)CCCCCCCCCCCCCCCCC(=O)O)C(=O)O)NC(=O)[C@H](CCC(=O)O)NC(=O)[C@H](CC(C)C)NC(=O)[C@H](CC(C)C)NC(=O)[C@@H](NC(=O)[C@H](CO)NC(=O)[C@H](Cc1ccc(O)cc1)NC(=O)[C@H](CC(=O)O)NC(=O)[C@H](CO)NC(=O)[C@@H](NC(=O)[C@H](Cc1ccccc1)NC(=O)[C@@H](NC(=O)CNC(=O)[C@H](CCC(=O)O)NC(=O)C(C)(C)NC(=O)[C@@H](N)Cc1ccc(O)cc1)[C@@H](C)O)[C@@H](C)O)[C@@H](C)CC)C(=O)N[C@@H](CC(N)=O)C(=O)N[C@@H](Cc1c[nH]c2ccccc12)C(=O)N[C@@H](CC(C)C)C(=O)N[C@@H](CC(C)C)C(=O)N[C@@H](C)C(=O)NCC(=O)NCC(=O)N1CCC[C@H]1C(=O)N[C@@H](CO)C(=O)N[C@@H](CO)C(=O)NCC(=O)N[C@@H](C)C(=O)N1CCC[C@H]1C(=O)N1CCC[C@H]1C(=O)N1CCC[C@H]1C(=O)N[C@@H](CO)C(=O)O [Compound No. 24] (H-Y[Aib]EGTFTSDYSILLEK([εLys-εLys-γGlu-C18 diacid])QAAQEFINWLLAGGPSSGAPPPS-OH) |  | 0.29 | 
